Patent US20150005281A1, “PYRIMIDINE-2,4-DIAMINE DERIVATIVES AS KINASE INHIBITORS” (Cellzome Limited, priority 2011, published 2015)
pIC50: −log10 of the molar value.

Experiments:
Type in all cases: binding
[1] = biological target: T1, JAK1 (Homo sapiens, UniProt P23458); test: Kinobeads assay with immunodetection, JAK1; conditions: for pIC50: Kinobeads assay, mixed Molt4/Ramos lysate, read-out: Inhibition values (IC50) JAK1
T1 construct: endogenous in cells; host or cells: Molt4 (ATCC CRL-1582) and Ramos (ATCC CRL-1596) cells; mixed lysate 1:2
T1 sequence (P23458 whole entry): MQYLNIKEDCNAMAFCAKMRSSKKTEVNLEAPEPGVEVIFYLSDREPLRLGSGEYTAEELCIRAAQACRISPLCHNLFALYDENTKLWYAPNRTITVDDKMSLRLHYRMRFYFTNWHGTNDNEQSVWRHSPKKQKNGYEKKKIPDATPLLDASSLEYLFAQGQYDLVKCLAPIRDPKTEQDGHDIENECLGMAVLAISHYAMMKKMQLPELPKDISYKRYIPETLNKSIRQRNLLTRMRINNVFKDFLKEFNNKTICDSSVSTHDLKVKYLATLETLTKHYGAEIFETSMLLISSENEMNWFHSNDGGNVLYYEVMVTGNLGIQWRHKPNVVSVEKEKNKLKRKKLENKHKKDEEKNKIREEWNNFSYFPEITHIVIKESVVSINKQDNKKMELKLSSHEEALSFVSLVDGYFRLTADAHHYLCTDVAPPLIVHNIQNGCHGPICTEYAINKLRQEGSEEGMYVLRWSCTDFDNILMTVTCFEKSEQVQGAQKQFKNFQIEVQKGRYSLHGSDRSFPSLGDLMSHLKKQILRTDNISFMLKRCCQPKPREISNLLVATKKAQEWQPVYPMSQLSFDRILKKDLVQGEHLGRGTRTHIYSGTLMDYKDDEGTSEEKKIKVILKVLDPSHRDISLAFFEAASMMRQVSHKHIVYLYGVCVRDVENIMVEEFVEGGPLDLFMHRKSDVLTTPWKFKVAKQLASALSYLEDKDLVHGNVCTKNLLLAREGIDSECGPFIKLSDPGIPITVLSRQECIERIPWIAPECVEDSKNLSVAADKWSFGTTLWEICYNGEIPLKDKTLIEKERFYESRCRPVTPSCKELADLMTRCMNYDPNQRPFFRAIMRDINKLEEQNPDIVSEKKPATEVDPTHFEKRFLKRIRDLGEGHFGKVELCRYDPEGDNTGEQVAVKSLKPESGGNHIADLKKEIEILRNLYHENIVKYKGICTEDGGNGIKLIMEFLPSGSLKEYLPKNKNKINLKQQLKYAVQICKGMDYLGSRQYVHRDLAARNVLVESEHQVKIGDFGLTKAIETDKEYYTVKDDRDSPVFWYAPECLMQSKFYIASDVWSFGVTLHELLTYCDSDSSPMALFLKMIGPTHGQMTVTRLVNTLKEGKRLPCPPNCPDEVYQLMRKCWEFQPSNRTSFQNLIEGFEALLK
Method in brief: (§1)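 Inhibition of kinase capture on aminopyrido-pyrimidine beads was measured after a 3 h cold incubation in mixed human leukemia and lymphoma cell lysate. Bound kinase was quantified by immunodetection and IC50s were calculated.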

[2] = biological target: T2, JAK2 (Homo sapiens, UniProt O60674); test: Kinobeads assay with immunodetection, JAK2; conditions: mixed Molt4/Ramos lysate, read-out: Inhibition values (IC50) JAK2
T2 construct: endogenous in cells; host or cells: Molt4 (ATCC CRL-1582) and Ramos (ATCC CRL-1596) cells; mixed lysate 1:2
T2 sequence (O60674 whole entry): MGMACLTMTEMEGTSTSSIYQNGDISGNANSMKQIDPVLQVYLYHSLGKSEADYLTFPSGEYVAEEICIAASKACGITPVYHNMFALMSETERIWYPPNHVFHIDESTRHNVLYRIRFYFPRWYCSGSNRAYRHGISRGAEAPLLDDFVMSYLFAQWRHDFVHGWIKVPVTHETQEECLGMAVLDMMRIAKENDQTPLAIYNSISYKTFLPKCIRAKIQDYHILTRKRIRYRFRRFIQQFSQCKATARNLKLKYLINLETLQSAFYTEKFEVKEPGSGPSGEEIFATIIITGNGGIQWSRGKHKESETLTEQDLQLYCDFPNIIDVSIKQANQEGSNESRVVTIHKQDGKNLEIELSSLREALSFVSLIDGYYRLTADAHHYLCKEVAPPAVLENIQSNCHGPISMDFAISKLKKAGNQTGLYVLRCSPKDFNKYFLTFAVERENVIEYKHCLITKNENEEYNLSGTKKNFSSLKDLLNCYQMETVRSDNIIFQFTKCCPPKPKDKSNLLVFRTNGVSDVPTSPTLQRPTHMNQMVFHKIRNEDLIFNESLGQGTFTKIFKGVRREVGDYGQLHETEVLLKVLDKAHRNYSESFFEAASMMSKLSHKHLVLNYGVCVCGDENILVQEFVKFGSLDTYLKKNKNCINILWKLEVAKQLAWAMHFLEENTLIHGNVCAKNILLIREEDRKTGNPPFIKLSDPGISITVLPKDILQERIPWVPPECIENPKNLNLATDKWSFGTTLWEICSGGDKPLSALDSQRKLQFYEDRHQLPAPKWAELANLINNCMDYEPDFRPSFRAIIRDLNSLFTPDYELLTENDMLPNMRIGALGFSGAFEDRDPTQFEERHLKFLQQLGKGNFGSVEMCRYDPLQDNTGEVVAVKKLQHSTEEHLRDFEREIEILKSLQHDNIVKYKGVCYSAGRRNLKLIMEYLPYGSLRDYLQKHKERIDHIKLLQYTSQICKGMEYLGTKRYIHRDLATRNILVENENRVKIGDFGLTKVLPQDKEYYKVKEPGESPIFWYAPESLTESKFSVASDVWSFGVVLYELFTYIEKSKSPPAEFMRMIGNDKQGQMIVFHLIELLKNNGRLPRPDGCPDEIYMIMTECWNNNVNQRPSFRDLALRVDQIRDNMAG
Method in brief: as §1

[3] = biological target: T3, JAK3 (Homo sapiens, UniProt P52333); test: Kinobeads assay with immunodetection, JAK3; conditions: for pIC50: Kinobeads assay, mixed Molt4/Ramos lysate, read-out: Inhibition values (IC50) JAK3
T3 construct: endogenous in cells; host or cells: Molt4 (ATCC CRL-1582) and Ramos (ATCC CRL-1596) cells; mixed lysate 1:2
T3 sequence (P52333 1-1124): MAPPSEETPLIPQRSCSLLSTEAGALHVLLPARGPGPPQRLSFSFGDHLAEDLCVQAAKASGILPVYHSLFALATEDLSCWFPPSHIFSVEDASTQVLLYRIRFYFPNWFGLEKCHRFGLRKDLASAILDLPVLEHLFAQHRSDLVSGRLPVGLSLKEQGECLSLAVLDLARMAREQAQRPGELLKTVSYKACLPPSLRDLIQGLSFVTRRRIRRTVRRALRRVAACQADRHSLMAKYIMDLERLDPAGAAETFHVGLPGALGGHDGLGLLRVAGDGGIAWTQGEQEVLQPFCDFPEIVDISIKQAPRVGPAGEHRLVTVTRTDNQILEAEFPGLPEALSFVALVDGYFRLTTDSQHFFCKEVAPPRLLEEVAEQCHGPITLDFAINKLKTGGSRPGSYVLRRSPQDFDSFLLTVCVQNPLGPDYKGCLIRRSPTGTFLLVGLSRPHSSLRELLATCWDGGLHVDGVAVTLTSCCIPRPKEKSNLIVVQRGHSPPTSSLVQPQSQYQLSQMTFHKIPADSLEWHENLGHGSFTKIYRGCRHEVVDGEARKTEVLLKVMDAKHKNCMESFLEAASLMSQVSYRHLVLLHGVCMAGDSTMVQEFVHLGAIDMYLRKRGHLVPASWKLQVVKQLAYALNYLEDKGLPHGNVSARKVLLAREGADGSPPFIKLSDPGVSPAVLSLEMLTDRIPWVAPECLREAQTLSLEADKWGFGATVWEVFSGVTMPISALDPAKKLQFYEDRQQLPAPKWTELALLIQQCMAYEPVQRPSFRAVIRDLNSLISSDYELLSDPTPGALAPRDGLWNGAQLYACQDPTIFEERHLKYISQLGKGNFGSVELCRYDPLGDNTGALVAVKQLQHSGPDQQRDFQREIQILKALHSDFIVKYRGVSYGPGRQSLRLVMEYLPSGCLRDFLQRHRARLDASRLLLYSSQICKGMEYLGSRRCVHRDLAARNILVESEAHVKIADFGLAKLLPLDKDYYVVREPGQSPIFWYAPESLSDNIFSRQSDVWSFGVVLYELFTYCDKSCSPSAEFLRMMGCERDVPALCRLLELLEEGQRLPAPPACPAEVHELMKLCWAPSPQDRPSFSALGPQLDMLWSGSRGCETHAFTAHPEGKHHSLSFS
Method in brief: as §1

[4] = biological target: T4, TYK2 (Homo sapiens, UniProt P29597); test: Kinobeads assay with immunodetection, TYK2; conditions: for pIC50: Kinobeads assay, mixed Molt4/Ramos lysate, read-out: Inhibition values (IC50) Tyk2
T4 construct: endogenous in cells; host or cells: Molt4 (ATCC CRL-1582) and Ramos (ATCC CRL-1596) cells; mixed lysate 1:2
T4 sequence (P29597 whole entry): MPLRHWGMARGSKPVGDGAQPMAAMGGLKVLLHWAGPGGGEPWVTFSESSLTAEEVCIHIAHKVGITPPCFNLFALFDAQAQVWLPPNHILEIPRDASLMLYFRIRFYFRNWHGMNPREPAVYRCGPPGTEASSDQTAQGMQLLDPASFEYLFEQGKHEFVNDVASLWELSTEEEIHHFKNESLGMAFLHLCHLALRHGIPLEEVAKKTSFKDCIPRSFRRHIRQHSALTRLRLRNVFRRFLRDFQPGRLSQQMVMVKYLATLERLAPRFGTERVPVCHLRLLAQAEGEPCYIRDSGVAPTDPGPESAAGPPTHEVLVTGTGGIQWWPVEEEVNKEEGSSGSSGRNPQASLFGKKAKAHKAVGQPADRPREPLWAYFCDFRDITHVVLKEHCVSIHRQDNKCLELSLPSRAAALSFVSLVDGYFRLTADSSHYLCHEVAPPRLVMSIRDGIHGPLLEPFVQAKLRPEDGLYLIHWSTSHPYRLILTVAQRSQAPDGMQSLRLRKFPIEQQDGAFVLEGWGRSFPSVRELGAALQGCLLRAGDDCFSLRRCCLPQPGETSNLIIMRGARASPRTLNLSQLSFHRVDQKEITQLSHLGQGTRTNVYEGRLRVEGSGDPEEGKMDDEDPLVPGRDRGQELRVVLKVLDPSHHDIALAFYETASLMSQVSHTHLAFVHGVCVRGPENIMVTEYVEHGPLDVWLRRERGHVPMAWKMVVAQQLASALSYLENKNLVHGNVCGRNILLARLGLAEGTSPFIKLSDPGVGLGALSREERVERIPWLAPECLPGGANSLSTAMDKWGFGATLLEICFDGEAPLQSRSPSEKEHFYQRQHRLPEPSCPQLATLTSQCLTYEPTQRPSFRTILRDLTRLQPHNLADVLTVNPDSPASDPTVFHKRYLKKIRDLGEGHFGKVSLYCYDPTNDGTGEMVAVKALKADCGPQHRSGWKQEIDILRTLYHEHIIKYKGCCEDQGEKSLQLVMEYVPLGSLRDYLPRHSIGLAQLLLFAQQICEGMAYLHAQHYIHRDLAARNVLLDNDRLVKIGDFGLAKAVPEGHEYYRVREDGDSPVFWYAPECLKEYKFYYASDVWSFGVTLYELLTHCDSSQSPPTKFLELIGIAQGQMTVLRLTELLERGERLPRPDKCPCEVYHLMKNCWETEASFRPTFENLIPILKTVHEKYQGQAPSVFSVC
Method in brief: as §1

| Structure (SMILES) | pIC50 [1] | pIC50 [2] | Selectivity ratio over JAK2, JAK3 [3] | pIC50 [3] | pIC50 [4] | Selectivity ratio over JAK2, Tyk2 [4] | Selectivity ratio over JAK2, JAK1 [1] |
| --- | --- | --- | --- | --- | --- | --- | --- |
| C=CC(=O)N1CCCC[C@@H]1CNc1nc(Nc2cnn(C)c2)ncc1Cl [Example 41, (R)-1-(2-(((5-chloro-2-((1-methyl-1H-pyrazol-4-yl)amino)pyrimidin-4-yl)amino)methyl)piperidin-1-yl)prop-2-en-1-one] | 6.00 to 7.00 | 6.00 to 7.00 | – | 6.00 to 7.00 | 6.00 to 7.00 | Tyk2 = 6 | – |
| C=CC(=O)N1CCCC[C@@H]1CNc1nc(Nc2cnn(CCO)c2)ncc1Cl [Example 42, (R)-1-(2-(((5-chloro-2-((1-(2-hydroxyethyl)-1H-pyrazol-4-yl)amino)pyrimidin-4-yl)amino)methyl)piperidin-1-yl)prop-2-en-1-one] | 6.00 to 7.00 | 6.00 to 7.00 | – | 6.00 to 7.00 | > 7.00 | Tyk2 = 4 | – |
| Cn1cc(Nc2ncc(Cl)c(NC[C@H]3CCCCN3S(C)(=O)=O)n2)cn1 [Example 43, (R)-5-chloro-N^2-(1-methyl-1H-pyrazol-4-yl)-N^4-((1-(methylsulfonyl)piperidin-2-yl)methyl)pyrimidine-2,4-diamine] | 6.00 to 7.00 | 6.00 to 7.00 | Jak3 = 18 | > 7.00 | > 7.00 | – | – |
| CS(=O)(=O)N1CCCC[C@@H]1CNc1nc(Nc2cnn(CCO)c2)ncc1Cl [Example 44, (R)-2-(4-((5-chloro-4-(((1-(methylsulfonyl)piperidin-2-yl)methyl)amino)pyrimidin-2-yl)amino)-1H-pyrazol-1-yl)ethanol] | 6.00 to 7.00 | 6.00 to 7.00 | JAK3 = 20 | > 7.00 | 6.00 to 7.00 | – | – |
| C=CS(=O)(=O)N1CCCC[C@@H]1CNc1nc(Nc2cnn(C)c2)ncc1Cl [Example 45, (R)-5-chloro-N^2-(1-methyl-1H-pyrazol-4-yl)-N^4-((1-(vinylsulfonyl)piperidin-2-yl)methyl)pyrimidine-2,4-diamine] | 6.00 to 7.00 | 5.00 to 6.00 | JAK3 = 160 | > 7.00 | 6.00 to 7.00 | – | – |
| Cn1cc(Nc2ncc(Cl)c(NCC3CCOCC3)n2)cn1 [Example 46, 5-chloro-N^2-(1-methyl-1H-pyrazol-4-yl)-N^4-((tetrahydro-2H-pyran-4-yl)methyl)pyrimidine-2,4-diamine] | 6.00 to 7.00 | 5.00 to 6.00 | – | 6.00 to 7.00 | 6.00 to 7.00 | – | JAK1 = 6 |
| Cn1cc(Nc2ncc(Cl)c(NCC3CCCCC3)n2)cn1 [Example 47, 5-chloro-N^4-(cyclohexylmethyl)-N^2-(1-methyl-1H-pyrazol-4-yl)pyrimidine-2,4-diamine] | 6.00 to 7.00 | 5.00 to 6.00 | JAK3 = 5 | 6.00 to 7.00 | 6.00 to 7.00 | – | – |
| Cn1cc(Nc2ncc(Cl)c(NC[C@H]3CCCN3CCO)n2)cn1 [Example 48, (R)-2-(2-((5-chloro-2-(1-methyl-1H-pyrazol-4-ylamino)pyrimidin-4-ylamino)methyl)pyrrolidin-1-yl)ethanol] | 6.00 to 7.00 | 5.00 to 6.00 | JAK3 = 52 | 6.00 to 7.00 | 6.00 to 7.00 | – | – |

Other lines, results leading:

| pIC50 [1] | pIC50 [2] | Selectivity ratio over JAK2, JAK3 [3] | pIC50 [3] | pIC50 [4] | Selectivity ratio over JAK2, Tyk2 [4] | Selectivity ratio over JAK2, JAK1 [1] | Structure (SMILES) |
| --- | --- | --- | --- | --- | --- | --- | --- |
| > 7.00 | 5.00 to 6.00 | JAK3 = 54 | 6.00 to 7.00 | 6.00 to 7.00 | – | – | Cn1cc(Nc2ncc(Cl)c(NC[C@@H]3CCCCN3S(C)(=O)=O)n2)cn1 [Example 36, (S)-5-chloro-N^2-(1-methyl-1H-pyrazol-4-yl)-N^4-((1-(methylsulfonyl)piperidin-2-yl)methyl)pyrimidine-2,4-diamine] |
| > 7.00 | 5.00 to 6.00 | JAK3 = 64 | > 7.00 | 6.00 to 7.00 | – | – | CS(=O)(=O)N1CCCC[C@H]1CNc1nc(Nc2cnn(CCO)c2)ncc1Cl [Example 37, (S)-2-(4-((5-chloro-4-(((1-(methylsulfonyl)piperidin-2-yl)methyl)amino)pyrimidin-2-yl)amino)-1H-pyrazol-1-yl)ethanol] |
| 6.00 to 7.00 | 5.00 to 6.00 | JAK3 = 57 | > 7.00 | 6.00 to 7.00 | – | – | C=CS(=O)(=O)N1CCCC[C@H]1CNc1nc(Nc2cnn(C)c2)ncc1Cl [Example 38, (S)-5-chloro-N^2-(1-methyl-1H-pyrazol-4-yl)-N^4-((1-(vinylsulfonyl)piperidin-2-yl)methyl)pyrimidine-2,4-diamine] |
| 6.00 to 7.00 | 5.00 to 6.00 | – | 6.00 to 7.00 | > 7.00 | Tyk2 = 8 | – | CC(=O)N1CCCC[C@@H]1CNc1nc(Nc2cnn(C)c2)ncc1Cl [Example 39, (R)-1-(2-(((5-chloro-2-((1-methyl-1H-pyrazol-4-yl)amino)pyrimidin-4-yl)amino)methyl)piperidin-1-yl)ethanone] |
| 6.00 to 7.00 | 6.00 to 7.00 | – | > 7.00 | > 7.00 | Tyk2 = 10 | – | CC(=O)N1CCCC[C@@H]1CNc1nc(Nc2cnn(CCO)c2)ncc1Cl [Example 40, (R)-1-(2-(((5-chloro-2-((1-(2-hydroxyethyl)-1H-pyrazol-4-yl)amino)pyrimidin-4-yl)amino)methyl)piperidin-1-yl)ethanone] |
| > 7.00 | 6.00 to 7.00 | – | > 7.00 | > 7.00 | Tyk2 = 42 | – | Cn1cc(Nc2ncc(Cl)c(NC[C@H]3CCCN3CCC#N)n2)cn1 [Example 49, (R)-3-(2-((5-chloro-2-(1-methyl-1H-pyrazol-4-ylamino)pyrimidin-4-ylamino)methyl)pyrrolidin-1-yl)propanenitrile] |
| > 7.00 | 6.00 to 7.00 | – | > 7.00 | > 7.00 | Tyk2 = 25 | – | Cn1cc(Nc2ncc(Cl)c(NC[C@H]3CCCN3CCS(C)(=O)=O)n2)cn1 [Example 50, (R)-5-chloro-N^2-(1-methyl-1H-pyrazol-4-yl)-N^4-((1-(2-(methylsulfonyl)ethyl)pyrrolidin-2-yl)methyl)pyrimidine-2,4-diamine] |
| > 7.00 | 6.00 to 7.00 | – | > 7.00 | > 7.00 | Tyk2 = 14 | – | CCS(=O)(=O)N1CCC[C@@H]1CNc1nc(Nc2cnn(C)c2)ncc1Cl [Example 51, (R)-5-chloro-N^4-((1-(ethylsulfonyl)pyrrolidin-2-yl)methyl)-N^2-(1-methyl-1H-pyrazol-4-yl)pyrimidine-2,4-diamine] |
| > 7.00 | 6.00 to 7.00 | – | > 7.00 | > 7.00 | Tyk2 = 30 | – | Cn1cc(Nc2ncc(Cl)c(NC[C@H]3CCCN3C(=O)CC#N)n2)cn1 [Example 52, (R)-3-(2-((5-chloro-2-(1-methyl-1H-pyrazol-4-ylamino)pyrimidin-4-ylamino)methyl)pyrrolidin-1-yl)-3-oxopropanenitrile] |
| > 7.00 | 5.00 to 6.00 | – | 6.00 to 7.00 | 6.00 to 7.00 | – | JAK1 = 93 | CN(C)CC(=O)N1CCC[C@@H]1CNc1nc(Nc2cnn(C)c2)ncc1Cl [Example 53, (R)-1-(2-((5-chloro-2-(1-methyl-1H-pyrazol-4-ylamino)pyrimidin-4-ylamino)methyl)pyrrolidin-1-yl)-2-(dimethylamino)ethanone] |
| > 7.00 | 6.00 to 7.00 | – | 6.00 to 7.00 | > 7.00 | Tyk2 = 12 | – | Cn1cc(Nc2ncc(Cl)c(NC[C@H]3CCCN3C(=O)CO)n2)cn1 [Example 54, (R)-1-(2-((5-chloro-2-(1-methyl-1H-pyrazol-4-ylamino)pyrimidin-4-ylamino)methyl)pyrrolidin-1-yl)-2-hydroxyethanone] |
